The subject of test [1] is HEK293 cells (no exogenous K2P expression). The experiment in a line: Resting membrane potential, current-clamp (I=0) in control HEK293 cells. The class given is cell-based. The conditions noted are these: 20 μM CAT335. As for the experimental part:
50% confluent cells were co-transfected (in 35-mm diameter wells) with 10-100 ng of the K2P2.1 plasmid and 400 ng of an eGFP plasmid (for visualization) using LipofectAMINE 2000 (Invitrogen) for 24 h, after which the cells were either plated onto coverslips or the media exchanged with fresh media. Cells were plated onto Matrigel coated coverslips (BD Biosciences) 1-2 hours before experiments.
Whole-cell patch-clamp experiments with K2P2.1(TREK-1) and mutants were carried out 24-48 h after transfection. Acquisition and analysis for voltage-clamp experiments were performed using pCLAMP10 and an Axopatch 200B amplifier (Molecular Devices). Current-clamp experiments were acquired using an […] amplifier (Molecular Devices). Pipettes were pulled using a Flaming/Brown micropipette puller (P-97, Sutter Instruments) and flame-polished using a MF-830 microforge (Narishige). Electrode resistance after filling with pipette internal solution ranged from 2 to 5 MΩ. Currents were low-pass filtered at 2 kHz and sampled at 10 kHz. Pipette solution contained the following: 145 mM KCl, 3 mM MgCl2, 5 mM EGTA and 20 mM HEPES (pH 7.2 with KOH). Bath solution contained the following: 145 mM NaCl, 5 mM KCl, 1 mM CaCl2, 3 mM MgCl2 and 20 mM HEPES (pH 7.4 with NaOH). […] Data were analyzed using Clampfit 11 and GraphPad Prism 9.

Test [2] deals with T1, K2P4.1 (TRAAK) (Homo sapiens, UniProt Q9NYG8).
T1 sequence (Q9NYG8 1-393): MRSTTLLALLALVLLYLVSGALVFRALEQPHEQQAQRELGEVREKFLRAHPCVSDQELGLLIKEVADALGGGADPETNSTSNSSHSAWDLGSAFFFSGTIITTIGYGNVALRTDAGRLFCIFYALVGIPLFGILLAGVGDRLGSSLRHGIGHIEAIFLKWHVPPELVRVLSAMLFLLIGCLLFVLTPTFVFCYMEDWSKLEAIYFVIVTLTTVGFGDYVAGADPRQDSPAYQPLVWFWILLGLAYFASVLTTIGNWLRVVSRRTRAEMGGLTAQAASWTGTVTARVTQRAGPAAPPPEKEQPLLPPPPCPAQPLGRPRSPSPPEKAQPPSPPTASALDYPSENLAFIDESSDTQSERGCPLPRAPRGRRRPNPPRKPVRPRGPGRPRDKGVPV
Conditions: previous studies; cited from earlier work.

As for `O=C(NCc1ccc(Cl)cc1Cl)c1ccc(N2C(=O)C=CC2=O)cc1` [CAT335], the “Change of resting membrane potential (ΔRMP)” value in test [1] is listed as “+7 mV”.
`CS(=O)(=O)Nc1ccc(C(=O)NCc2ccc(Cl)cc2Cl)cc1` [ML335, reference compound]: the “Sensitivity of channel to activator” value in test [2] is listed as “insensitive”.

Source of the values: patent US20260098008A1, “COVALENT, CHEMOGENETIC ACTIVATORS FOR K2P POTASSIUM CHANNELS AND USES THEREOF” (THE REGENTS OF THE UNIVERSITY OF CALIFORNIA, priority 2022, published 2026).
